{"source": "patent US20250353825A1", "about": "“CANNABICYCLOL DERIVATIVES AND PREPARATION METHODS THEREOF” (priority 2023, published 2025)", "key": {"MHCC97H-CSC": {"tested_on": "MHCC97H-CSC", "test": "MTS cell viability assay, MHCC97H-CSC", "assay_type": "cell-based", "details": "Table 6, tumor stem cell, 72 hours; read-out: IC50 against MHCC97H-CSC", "experimental": "(§1) Primary viability screening: (1) the synthesized compounds 3a to 13d were respectively dissolved in DMSO to prepare a 40 μg/mL cannabicyclol and cannabicyclol derivative solutions.\n(§2) (2) A control group: a 200 μL DMSO solvent.\n(§3) (3) The solutions of compounds 3a to 13d were diluted in a twofold gradient to obtain cannabicyclol and cannabicyclol derivative solutions at concentrations of 40 μg/mL, 20 μg/mL, 10 μg/mL, 5 μg/mL, 2.5 μg/mL, 1.25 μg/mL, and 0.625 μg/mL, and 0.3125 μg/mL, respectively.\n(§4) (4) Three glioblastoma stem cells (GSC-3, GSC-12, and GSC-18), three pancreatic cancer cell-derived stem cells (PANC-1-CSC, BXPC-3-CSC, and ASPC1-CSC), three liver cancer cell-derived stem cells (HepG2-CSC, MHCC97H-CSC, and SMMC7721-CSC), HEK-293T cells, 16 tumor cells (U251, U87, T98G, PANC1, BXPC3, ASPC1, HepG2, MHCC97H, SMMC7721, PC3, SKOV3, MDA-MB231, A549, HCT116, HEC-1B, MKN28), and differentiated glioblastoma stem cells (GSC-3diff and GSC-12diff) derived from GSC-3 and GSC-12 (all of the cells were provided by the Laboratory of Tumor Animal Model Preparation and Application Research, West China Hospital, Sichuan University) were inoculated into a 96-well plate at a concentration of 2×10^4 cells/well, and 100 μL of culture medium was then added to each well; […]\n(§5) (10) The absorbance value at 490 nm was measured on an enzyme labeling apparatus, and the IC50 value was calculated."}, "PANC1": {"tested_on": "PANC1", "test": "MTS cell viability assay, PANC1", "assay_type": "cell-based", "details": "Homo sapiens, PANC-1; Table 7, 72 hours; read-out: IC50 against PANC1", "experimental": "as §1, §2, §3, §4, §5"}, "SKOV3": {"tested_on": "SKOV3", "test": "MTS cell viability assay, SKOV3", "assay_type": "cell-based", "details": "Homo sapiens, SK-OV-3; Table 7, 72 hours; read-out: IC50 against SKOV3", "experimental": "as §1, §2, §3, §4, §5"}, "GSC-3diff": {"tested_on": "GSC-3diff", "test": "MTS cell viability assay, differentiated glioblastoma stem cells GSC-3diff", "assay_type": "cell-based", "details": "Table 7, 72 hours, read-out: IC50 against GSC-3diff", "experimental": "as §1, §2, §3, §4, §5"}, "SMMC7721 liver cancer": {"tested_on": "SMMC7721 liver cancer", "test": "Mouse liver cancer model (subcutaneous SMMC7721)", "assay_type": "in vivo, mice", "details": "for tumor volume compared with the control group: 23 days, FIG. 5; for tumor weight compared with the control group: day 23, FIG. 7", "experimental": "Establishment of a mouse liver cancer model: 2×10^6 SMMC7721 (containing 30% Matrigel) was subcutaneously injected into the right inguinal region of the mice (NOD/ShiLtJGpt-Prkdc^em26cd52 Il2rg^em26cd22/Gpt(NCG)mic). The model was established when the tumor volume reached 50 mm^3.\nAccording to the weight of mice: in treatment group 1, each mouse was intraperitoneally injected with a CBL solution at 50 mg/kg, and in treatment group 2, each mouse was intraperitoneally injected with a CBL solution at 100 mg/kg. The mice in a control group were injected with an equal volume of a DMSO solvent. The drug was administered once every 2 days, continuing for 23 days. Tumor volume was measured on days 3, 7, 10, 14, 17, 20, and 23. On day 23, the tumor tissue was collected and weighed. The tumor volume changes at different time points are shown in FIG. 5, the tumor tissue collected on day 23 is shown in FIG. 6, and the average tumor weight of different treatment groups is shown in FIG. 7."}, "[1]": {"details": "treatment group 1, 50 mg/kg intraperitoneally once every 2 days"}, "[2]": {"details": "treatment group 2, 100 mg/kg intraperitoneally once every 2 days"}}}
{"smiles": "CCCCCc1cc(O)c2c(c1)OC1(C)CCC3C1C2C3(C)C", "note": "(stereo not drawn) [Compound 3a, cannabicyclol]", "values": [{"measurement": "IC50", "setting": "MHCC97H-CSC", "value": 5.32, "unit": "µg/mL"}, {"measurement": "IC50", "setting": "PANC1", "value": "> 40", "unit": "µg/mL"}, {"measurement": "IC50", "setting": "SKOV3", "value": "> 40", "unit": "µg/mL"}, {"measurement": "IC50", "setting": "GSC-3diff", "value": 23.5, "unit": "µg/mL"}, {"measurement": "inhibitory effect on liver cancer, 100 mg/kg compared to 50 mg/kg", "setting": "SMMC7721 liver cancer; 100 mg/kg versus 50 mg/kg dosage, intraperitoneal", "value": "better inhibitory effect"}, {"measurement": "tumor volume compared with the control group", "setting": "SMMC7721 liver cancer; [1]", "value": "significantly inhibited"}, {"measurement": "tumor weight compared with the control group", "setting": "SMMC7721 liver cancer; [1]", "value": "significantly inhibited"}, {"measurement": "tumor volume compared with the control group", "setting": "SMMC7721 liver cancer; [2]", "value": "significantly inhibited"}, {"measurement": "tumor weight compared with the control group", "setting": "SMMC7721 liver cancer; [2]", "value": "significantly inhibited"}]}
